The source of these data is patent publication US6469028B1, “Synthesis and use of retinoid compounds having negative hormone and/or anatgonist activities” (Allergan, Inc., priority 1995, dated 2002).

Holding throughout (experiment): Holoreceptor transactivation assay
Holding throughout (type): cell-based

One experiment has as its target T1, RXRα (Homo sapiens, UniProt P19793).
T1 construct: expressed in transfected cells; host or cells: CV1 cells
T1 sequence (P19793 1-462): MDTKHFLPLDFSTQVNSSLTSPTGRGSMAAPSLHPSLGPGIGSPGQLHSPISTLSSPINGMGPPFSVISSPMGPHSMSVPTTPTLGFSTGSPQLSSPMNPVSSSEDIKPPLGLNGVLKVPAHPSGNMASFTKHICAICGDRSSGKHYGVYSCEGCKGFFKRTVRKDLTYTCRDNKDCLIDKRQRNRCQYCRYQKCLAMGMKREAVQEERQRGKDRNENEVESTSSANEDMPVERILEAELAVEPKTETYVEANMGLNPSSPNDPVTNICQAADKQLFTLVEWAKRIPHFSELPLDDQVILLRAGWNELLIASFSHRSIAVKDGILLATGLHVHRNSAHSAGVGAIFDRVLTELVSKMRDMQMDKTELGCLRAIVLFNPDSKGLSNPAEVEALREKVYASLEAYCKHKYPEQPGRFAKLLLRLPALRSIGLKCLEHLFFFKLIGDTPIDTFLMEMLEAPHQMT
The settings on record: relative to all trans retinoic acid; read-out: Transactivation Assay Efficacy (% of RA activity) RXRα. An excerpt: A holoreceptor transactivation assay and a ligand binding assay which measure the antagonist/agonist like activity of the compounds of the invention, or their ability to bind to the several retinoid receptor subtypes, respectively, are described in published PCT Application No. WO93/11755 (particularly on pages 30-33 and 37-41) published on Jun. 24, 1993, the specification of which is also incorporated herein by reference. A description of the holoreceptor transactivation assay is also provided below.
CV1 cells (5,000 cells/well) were transfected with an RAR reporter plasmid MTV-TREp-LUC (50 ng) along with one of the RAR expression vectors (10 ng) in an automated 96-well format by the calcium phosphate procedure of Heyman et al. Cell 68: 397-406. For RXR-α and RXR-γ transactivation assays, an RXR-responsive reporter plasmid CRBPII-tk-LUC (50 ng) along with the appropriate RXR expression vectors (10 ng) was used substantially as described by Heyman et al. above, and Allegretto et al. J. Biol. Chem. 268: 26625-26633. For RXR-β transactivation assays, an RXR-responsive reporter plasmid CPRE-tk-LUC ([…]) along with RXR-β expression vector ([…]) was used as described in above. These reporters contain DRI elements from human CRBPII and certain DRI elements from promotor, respectively (see Mangelsdorf et al. The Retinoids: Biology Chemistry and Medicine, pp. 319-349, Raven Press Ltd., New York and Heyman et al., cited above). A β-galactosidase (50 ng) expression vector was used as an internal control in the transfections to normalize for variations in transfection efficiency. The cells were transfected in triplicate for 6 hours, followed by incubation with retinoids for 36 hours, and the extracts were assayed for luciferase and […] activities. The detailed experimental procedure for holoreceptor transactivations has been described in Heyman et al. above, and Allegretto et al. cited above. The results obtained in this assay are expressed in EC50 numbers, as they are also in the chimeric receptor transactivation assay. The Heyman et al. Cell 68: 397-406, Allegretto et al. J. Biol. Chem. 268: 26625-26633, and Mangelsdorf et al. The Retinoids: Biology, Chemistry, and Medicine, pp. 319-349, Raven Press Ltd., New York, are expressly incorporated herein by reference. The results of ligand binding assay are expressed in Kd numbers. (See Cheng et al. Biochemical Pharmacology 22: 3099-3108, expressly incorporated herein by reference.)

A further experiment addresses T2, RARα (Homo sapiens, UniProt P10276).
T2 sequence (P10276 1-462): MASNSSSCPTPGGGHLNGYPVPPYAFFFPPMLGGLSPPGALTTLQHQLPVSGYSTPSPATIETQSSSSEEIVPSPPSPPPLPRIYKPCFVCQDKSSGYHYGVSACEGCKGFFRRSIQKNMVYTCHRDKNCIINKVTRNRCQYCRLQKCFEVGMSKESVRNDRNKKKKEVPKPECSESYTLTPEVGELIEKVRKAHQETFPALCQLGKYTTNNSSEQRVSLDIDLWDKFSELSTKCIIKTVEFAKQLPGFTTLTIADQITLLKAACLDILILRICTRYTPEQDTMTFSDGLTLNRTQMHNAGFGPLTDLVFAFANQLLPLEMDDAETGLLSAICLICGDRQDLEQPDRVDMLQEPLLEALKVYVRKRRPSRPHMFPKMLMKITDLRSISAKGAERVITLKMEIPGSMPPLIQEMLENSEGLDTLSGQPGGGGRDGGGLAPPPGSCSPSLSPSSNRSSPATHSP
On the set-up: expressed in transfected cells; host or cells: CV1 cells. The settings on record: relative to all trans retinoic acid; read-out: Transactivation Assay Efficacy (% of RA activity) RARα.

Another experiment concerns the target T3, RARγ (Homo sapiens, UniProt P13631).
T3 sequence (P13631 1-454): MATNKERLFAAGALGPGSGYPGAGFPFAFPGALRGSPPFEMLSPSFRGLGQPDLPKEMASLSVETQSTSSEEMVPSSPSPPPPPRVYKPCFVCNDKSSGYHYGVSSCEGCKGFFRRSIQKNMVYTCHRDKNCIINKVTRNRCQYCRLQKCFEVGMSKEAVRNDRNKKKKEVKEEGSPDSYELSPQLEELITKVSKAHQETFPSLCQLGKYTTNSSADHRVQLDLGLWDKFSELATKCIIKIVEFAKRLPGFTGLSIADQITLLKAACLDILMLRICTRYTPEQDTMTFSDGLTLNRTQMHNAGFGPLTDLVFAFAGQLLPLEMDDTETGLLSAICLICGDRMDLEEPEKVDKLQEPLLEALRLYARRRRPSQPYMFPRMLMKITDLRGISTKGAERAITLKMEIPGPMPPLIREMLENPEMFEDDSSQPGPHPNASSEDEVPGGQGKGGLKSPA
On the set-up: expressed in transfected cells; host or cells: CV1 cells. The conditions noted are these: relative to all trans retinoic acid; read-out: Transactivation Assay Efficacy (% of RA activity) RARγ.

For the molecule `CC1(C)CC=C(c2cccc(O)c2)c2cc(C#Cc3ccc(C(=O)O)cc3)ccc21` [Compound 28, 4-[(5,6-Dihydro5,5-dimethyl-8-(3-hydroxyphenyl)-2-naphthalenyl)ethynyl]benzoic acid], the Emax on RXRα, at RARα and on RARγ was 2% in each case.
Consider `Cc1cnc(C2=CCC(C)(C)c3ccc(C#Cc4ccc(C(=O)O)cc4)cc32)s1` [Compound 30, 4-[(5,6-Dihydro-5,5-dimethyl-8-(5-methylthiazol-2-yl)-2-naphthalenyl)ethynyl]benzoic acid], for which the Emax at RXRα worked out at 0%; at RARα, 3%; on RARγ, 1%.
As for `Cc1ccc(C2=CCC(C)(C)c3ccc(N=Nc4ccc(C(=O)O)cc4)cc32)cc1` [Compound 46b, 4-[(5,6-dihydro-5,5-dimethyl-8-(4-methylphenyl)-2-naphthalenyl)azo]-benzoic acid], the Emax was 2% at RXRα, 4% on RARα and 3% at RARγ.
`CC1(C)CC=C(c2cccnc2)c2cc(C#Cc3ccc(C(=O)O)cc3)ccc21` [Compound 26, 4-[(5,6-Dihydro-5,5-dimethyl-8-(3-pyridyl)-2-naphthalenyl)ethynyl]benzoic acid]: the Emax on RXRα amounted to 2%; on RARα, 1%; on RARγ it was 0%.
In the case of `Cc1ccc(C2=CCC(C)(C)c3ccc(C(=O)Oc4ccc(C(=O)O)cc4)cc32)cc1` [Compound 39, 4-[[(5,6-Dihydro-5,5-dimethyl-8-(4-methylphenyl)-2-naphthalenyl)carbonyl]oxy]-benzoic acid], the Emax on RXRα was determined as 2%; at RARα it was 1%; on RARγ it was 9%.
Consider `CC1(C)CC=C(c2ccc(C(F)(F)F)cc2)c2cc(C#Cc3ccc(C(=O)O)cc3)ccc21` [Compound 23, 4-[(5,6-Dihydro-5,5-dimethyl-8-(4-trifluoromethylphenyl)-2-naphthalenyl)ethynyl]benzoic acid], for which the Emax at RXRα was 1%; at RARα, 0%; on RARγ it was 3%.
On to `Cc1ccc(C2=CCC(C)(C)c3ccc(C(=O)Nc4ccc(C(=O)O)c(F)c4)cc32)cc1` [Compound 41, 2-Fluoro-4-[[(5,6-dihydro-5,5-dimethyl-8-(4methylphenyl)-2-naphthalenyl)carbonyl]amino]-benzoic acid], for which the Emax on RXRα amounted to 1%; at RARα it was 3%; at RARγ, 6%.
Take `Cc1cc(C)cc(C2=CCC(C)(C)c3ccc(C#Cc4ccc(C(=O)O)cc4)cc32)c1` [Compound 24, 4-[(5 6-Dihydro-5,5-dimethyl-8-(3,5-dimethylphenyl)-2-naphthalenyl)ethynyl]benzoic acid]: the Emax amounted to 1% at RXRα, 3% on RARα and 4% on RARγ.
With `Cc1csc(C2=CCC(C)(C)c3ccc(C#Cc4ccc(C(=O)O)cc4)cc32)n1` [Compound 31, 4-[(5,6-Dihydro-5,5-dimethyl-8-(4-methylthiazol-2-yl)-2-naphthalenyl)ethynyl]benzoic acid], the Emax at RXRα was determined as 1%; on RARα, 4%; at RARγ, 2%.
Regarding `Cc1ccc(C2=CCC(C)(C)c3ccc(C(=S)Nc4ccc(C(=O)O)c(F)c4)cc32)cc1` [Compound 63, 2-fluoro-4-[[(5,6-dihydro-5,5-dimethyl-8-(4-methylphenyl)-2-naphthalenyl)thiocarbonyl]amino]-benzoic acid], the Emax at RXRα amounted to 1%; on RARα, 2%; on RARγ, 7%.
The corresponding values for `Cc1nc(C2=CCC(C)(C)c3ccc(C#Cc4ccc(C(=O)O)cc4)cc32)sc1C` [Compound 32] are 1%, 0% and 2%.
For `CC1(C)CC=C(c2ccccc2)c2ccc(C(=O)C=Cc3ccc(C(=O)O)cc3)cc21` [Compound 103, 4-[3-oxo-3-(7,8-dihydro-5-phenyl-8,8-dimethyl-2-naphthalenyl)-1-propenyl]-benzoic acid], the figures for the Emax on RXRα, at RARα and on RARγ were 0%, 4% and 7%, respectively.
Taken in the same sequence, the figures for `Cc1ccc(C2=CCC(C)(C)c3ccc(C#Cc4ccc(C(=O)O)cc4)cc32)cc1` [Compound 60, 4-[(5,6-dihydro-5,5-dimethyl-8-(4-methylphenyl)-2-naphthalenyl)ethynyl]benzoic acid] were 3%, 0% and 4%.
For the molecule `Cc1ccc(C2=CCC(C)(C)c3ccc(C#Cc4ccc(C(=O)O)cc4)cc32)s1` [Compound 34, 4-[(5,6-Dihydro-5,5-dimethyl-8-(5-methyl-2-thienyl)-2-naphthalenyl)ethynyl]benzoic acid], the Emax was determined as 1% at RXRα, 3% at RARα and 2% at RARγ.
In the case of `Cc1ccccc1C1=CCC(C)(C)c2ccc(C#Cc3ccc(C(=O)O)cc3)cc21` [Compound 27, 4-[(5,6-Dihydro-5,5-dimethyl-8-(2-methylphenyl)-2-naphthalenyl)ethynyl]benzoic acid], the Emax stood at 2% on RXRα, 9% on RARα and 6% on RARγ.
